Measurements published in article PMC9025560, “A Comparison of Evans Blue and 4-(p-Iodophenyl)butyryl Albumin Binding Moieties on an Integrin αvβ6 Binding Peptide” (Pharmaceutics, 2022).
Like-named read-outs stand apart in the source and are kept apart here.

Assays:
[1] = Blocking biodistribution with pre-administered metal free peptide; assay type: in vivo, mice; conditions: female, athymic nu/nu-nude, mouse, intravenous, total radioactivity, 4 h p.i., metal free peptide 10 min before, n = 1
Description: For blocking studies, the metal free peptides 1 or 2 (~220 nmol, 1.3 mg in 100 μL PBS), respectively, were injected i.v. (n = 1/peptide) as described above 10 min prior to the injection of matching radiolabeled [^64Cu]1 or [^64Cu]2 (3.7–5.55 MBq, 100 μL PBS). After a conscious 4 h uptake period, the animals were anesthetized, sacrificed, tissues rapidly collected, and analyzed as described above. Decay-corrected radioactivity concentrations are expressed as a percentage of injected dose per gram of tissue (% ID/g) (Figure S23).

BxPC-3 xenograft tumors = experiment: Biodistribution in mice bearing BxPC-3 xenograft tumors; assay type: in vivo; conditions: for Kidneys uptake: i.v.
Description: All animal procedures conformed to the Animal Welfare Act and were approved by the University of California, Davis Institutional Animal Care and Use Committee. Female athymic nu/nu-nude mice (6–8 weeks old) were purchased from Charles River Laboratories (Wilmington, MA, USA) and provided food and water on an ad libitum basis. BxPC-3 xenografts were implanted according to previous methods. Briefly, BxPC-3 cells were evaluated by flow cytometry to confirm integrin αvβ6 expression levels, injected subcutaneously into the left flank [5 million in 100 μL of a 1:1 mixture of serum-free RPMI and GFR Matrigel (Corning, New York, NY, USA)], and allowed to grow for approximately 3 weeks until tumors reached a diameter of 0.5–1 cm.
For biodistribution studies the [^64Cu]1–4 (3.7–5.55 MBq) in PBS (100 μL, pH 7.2) was injected intravenously (i.v.) via catheter into the tail vein. Following a conscious uptake period, the mice were anesthetized (5% isoflurane), euthanized, and dissected ([^64Cu]1 and [^64Cu]2, n = 3/radiolabeled peptide/time point; 4, 24, and 48 h p.i.; the 72 h time point was obtained from the imaging animals after the 72 h PET/CT scans; compounds [^64Cu]3 and [^64Cu]4, n = 2/radiolabeled compound at 4 h p.i.). Tissues were rapidly collected, weighed, and radioactivity measured with a γ-counter. Decay-corrected radioactivity concentrations are expressed as the percentage of injected dose per gram of tissue (% ID/g). Data are reported as mean ± standard deviation (SD) (Figure S20, S21 and S25).

[2] = Stability in mouse serum at 37 °C; assay type: in vitro ADME; conditions: mouse, mouse serum, read-out: Stability in mouse serum, % intact
Description: For serum stability, mouse serum or human serum (0.5 mL, both purchased from Sigma-Aldrich) was combined with an aliquot of each of the peptides [^64Cu]1 and [^64Cu]2 (≤25 μL, 14.8–22.2 MBq) and incubated at 37 °C. At each time point (1, 4, and 24 h) an aliquot (50–200 μL) was taken, proteins precipitated with ethanol, and removed by pelleting at 1500 (RCF) for 4 min. The ethanol solution was diluted with water (1 mL) and analyzed by RP-HPLC as previously described.

Work on Cc1cc(-c2ccc(NC(=O)CCC(=O)NCCCC[C@H](NC(=O)CN3CCN(CC(=O)O)CCN(CC(=O)O)CCN(CC(=O)O)CC3)C(=O)NCCOCCOCCOCCOCCOCCOCCOCCOCCOCCOCCOCCOCCOCCOCCOCCOCCOCCOCCOCCOCCOCCOCCOCCOCCOCCOCCOCCOCCC(=O)N[C@@H](CC(N)=O)C(=O)N[C@@H](C)C(=O)N[C@H](C(=O)N3CCC[C@H]3C(=O)N[C@@H](CC(N)=O)C(=O)N[C@@H](CC(C)C)C(=O)N[C@@H](CCCNC(=N)N)C(=O)NCC(=O)N[C@@H](CC(=O)O)C(=O)N[C@@H](CC(C)C)C(=O)N[C@@H](CCC(N)=O)C(=O)N[C@H](C(=O)N[C@@H](CC(C)C)C(=O)N[C@@H](C)C(=O)N[C@@H](CCC(N)=O)C(=O)N[C@@H](CCCNC(=N)N)C(=O)N[C@H](C(=O)N[C@@H](C)C(=O)N[C@@H](CCCNC(=N)N)C(=O)N[C@H](C(=O)NCCOCCOCCOCCOCCOCCOCCOCCOCCOCCOCCOCCOCCOCCOCCOCCOCCOCCOCCOCCOCCOCCOCCOCCOCCOCCOCCOCCOCCC(N)=O)[C@@H](C)O)C(C)C)C(C)C)C(C)C)c(C)c2)ccc1N=Nc1ccc2c(S(=O)(=O)O)cc(S(=O)(=O)O)c(N)c2c1O [[^64Cu]1, [^64Cu]Cu DOTA-EB-αvβ6-BP, metal not drawn] yielded a tissue uptake at 4 h ([1]; BxPC-3 tumor, read-out: BxPC-3 Tumor uptake, blocked) of 2.91 %ID/g, a tissue uptake at 4 h ([1]; blood, read-out: Blood uptake, blocked) of 2.56 %ID/g and a tissue uptake at 4 h ([1]; bone, read-out: Bone uptake, blocked) of 0.43 %ID/g. It also gave a tissue uptake at 4 h ([1]; brain, read-out: Brain uptake, blocked) of 0.07 %ID/g, a tissue uptake at 4 h ([1]; gall bladder, read-out: Gall Bladder uptake, blocked) of 1.96 %ID/g and a tissue uptake at 4 h ([1]; heart, read-out: Heart uptake, blocked) of 0.96 %ID/g. The tissue uptake at 4 h ([1]; kidneys, read-out: Kidneys uptake, blocked) was 71.6 %ID/g, the tissue uptake at 4 h ([1]; large intestines, read-out: Lg. Intestines uptake, blocked) was 0.9 %ID/g and the tissue uptake at 4 h ([1]; liver, read-out: Liver uptake, blocked) was 1.92 %ID/g. For the same compound, the tissue uptake at 4 h ([1]; lung, read-out: Lung uptake, blocked) was 1.65 %ID/g, the tissue uptake at 4 h ([1]; muscle, read-out: Muscle uptake, blocked) was 0.41 %ID/g and the tissue uptake at 4 h ([1]; pancreas, read-out: Pancreas uptake, blocked) was 0.39 %ID/g. For the same compound, the tissue uptake at 4 h ([1]; skin, read-out: Skin uptake, blocked) was 1.12 %ID/g, the tissue uptake at 4 h ([1]; small intestines, read-out: Sm. Intestines uptake, blocked) was 0.91 %ID/g and the tissue uptake at 4 h ([1]; spleen, read-out: Spleen uptake, blocked) was 0.85 %ID/g. For the same compound, the tissue uptake at 4 h ([1]; stomach, read-out: Stomach uptake, blocked) was 0.72 %ID/g, the Tumor-Blood ratio (BxPC-3 xenograft tumors; 4 h p.i.) was > 4/1 and the Tumor-Kidney ratio (BxPC-3 xenograft tumors; 4 h p.i.) was 0.07 ± 0.003. For the same compound, the “Tumor-Lg Intestines ratio” value (BxPC-3 xenograft tumors; 4 h p.i.) was 1.28 ± 0.12, the Tumor-Liver ratio (BxPC-3 xenograft tumors; 4 h p.i.) was 3.2–4.9 and the Tumor-Muscle ratio (BxPC-3 xenograft tumors; 4 h p.i.) was > 8/1. For the same compound, the “Tumor-Sm Intestines ratio” value (BxPC-3 xenograft tumors; 4 h p.i.) was 1.12 ± 0.05, the Tumor-Stomach ratio (BxPC-3 xenograft tumors; 4 h p.i.) was 0.83 ± 0.03 and the Kidneys uptake (BxPC-3 xenograft tumors; 4 h p.i.) was 75.5 ± 7.3 % ID/g. It also gave a Tumor-Blood ratio (BxPC-3 xenograft tumors; 4 h p.i., listed as [64Cu]1) of 4.30 ± 1.47, a Tumor-Liver ratio (BxPC-3 xenograft tumors; 4 h p.i., listed as [64Cu]1) of 3.24 ± 0.14 and a Tumor-Muscle ratio (BxPC-3 xenograft tumors; 4 h p.i., listed as [64Cu]1) of 7.95 ± 0.55. The Tumor-Blood ratio (BxPC-3 xenograft tumors; 24 h p.i.) was 15.41 ±3.77, the Tumor-Kidney ratio (BxPC-3 xenograft tumors; 24 h p.i.) was 0.13 ± 0.06 and the “Tumor-Lg Intestines ratio” value (BxPC-3 xenograft tumors; 24 h p.i.) was 1.41 ±0.43. For the same compound, the Tumor-Liver ratio (BxPC-3 xenograft tumors; 24 h p.i.) was 2.39 ± 0.59, the Tumor-Muscle ratio (BxPC-3 xenograft tumors; 24 h p.i.) was 9.47 ±4.84 and the “Tumor-Sm Intestines ratio” value (BxPC-3 xenograft tumors; 24 h p.i.) was 1.75 ±0.52. For the same compound, the Tumor-Stomach ratio (BxPC-3 xenograft tumors; 24 h p.i.) was 1.19 ±0.02, the Tumor-Blood ratio (BxPC-3 xenograft tumors; 48 h p.i.) was 12.03± 1.44 and the Tumor-Kidney ratio (BxPC-3 xenograft tumors; 48 h p.i.) was 0.15 ± 0.02. For the same compound, the “Tumor-Lg Intestines ratio” value (BxPC-3 xenograft tumors; 48 h p.i.) was 1.51 ± 0.58, the Tumor-Liver ratio (BxPC-3 xenograft tumors; 48 h p.i.) was 1.51 ± 0.29 and the Tumor-Muscle ratio (BxPC-3 xenograft tumors; 48 h p.i.) was 8.39 ± 3.59. For the same compound, the “Tumor-Sm Intestines ratio” value (BxPC-3 xenograft tumors; 48 h p.i.) was 2.18 ± 0.91, the Tumor-Stomach ratio (BxPC-3 xenograft tumors; 48 h p.i.) was 1.41 ± 0.79 and the “Fold higher liver uptake than [64Cu]2” value (BxPC-3 xenograft tumors; 72 h) was over 1.8 fold. For the same compound, the Tumor-Blood ratio (BxPC-3 xenograft tumors; 72 h p.i.) was 10.07 ± 3.24, the Tumor-Kidney ratio (BxPC-3 xenograft tumors; 72 h p.i.) was 0.19 ± 0.08 and the “Tumor-Lg Intestines ratio” value (BxPC-3 xenograft tumors; 72 h p.i.) was 1.75 ±0.48. For the same compound, the Tumor-Liver ratio (BxPC-3 xenograft tumors; 72 h p.i.) was 1.47 ± 0.47, the Tumor-Muscle ratio (BxPC-3 xenograft tumors; 72 h p.i.) was 8.11 ±3.02 and the “Tumor-Sm Intestines ratio” value (BxPC-3 xenograft tumors; 72 h p.i.) was 2.43 ±0.45. For the same compound, the Tumor-Stomach ratio (BxPC-3 xenograft tumors; 72 h p.i.) was 1.65 ±0.32, the Kidneys uptake (BxPC-3 xenograft tumors; 72 h p.i.) was 20.0 ± 6.9 % ID/g and the “Fold increase in tumor accumulation over non-ABM [64Cu]Cu DOTA-αvβ6-BP” value (BxPC-3 xenograft tumors; BxPC-3 tumor model) was over 3 fold. For the same compound, the “Fold higher kidney uptake than [64Cu]2” value (BxPC-3 xenograft tumors; for at least 48 h) was over 1.7 fold, the remaining at 1 h ([2]; 1 h) was 78% and the remaining at 4 h ([2]; 4 h) was 58%. The remaining at 24 h ([2]; 24 h) was 14%.
